The source of these data is ChEMBL document CHEMBL3853335, “Citrinovirin with a new norditerpene skeleton from the marine algicolous fungus Trichoderma citrinoviride” (Bioorg Med Chem Lett, 2016).

For orientation: MIC means the lowest concentration that inhibits growth of the organism. For orientation: LC50 means the concentration that kills 50% of the test population.

In brackets after ≈: the same amount, converted by molar mass.

In one data set the test system is Staphylococcus aureus. In words: Antimicrobial activity against Staphylococcus aureus after 24 hrs by agar diffusion method. It counts as functional.
The nature of data set [1]: Toxicity in Artemia salina assessed as lethality after 24 hrs.
The next data set has as its system Chattonella marina. In words: Growth inhibition of Chattonella marina at 100 ug/ml after 12 hrs by light microscopy. It is filed as functional.
The subject of another data set is Heterosigma akashiwo. In words: Growth inhibition of Heterosigma akashiwo at 100 ug/ml after 12 hrs by light microscopy. It counts as functional.
Another data set deals with Prorocentrum donghaiense. In words: Growth inhibition of Prorocentrum donghaiense at 100 ug/ml after 12 hrs by light microscopy. It is filed as functional.
A further data set has as its system Scrippsiella trochoidea. As to the kind of experiment: Growth inhibition of Scrippsiella trochoidea at 100 ug/ml after 12 hrs by light microscopy. It counts as functional.
The subject of a further data set is Colletotrichum lagenaria. In words: Antimicrobial activity against Colletotrichum lagenarium after 24 hrs by agar diffusion method. It counts as functional. (In general: In agar diffusion tests the substance spreads into inoculated agar from a disc or well.)
The test system of data set [2] is Colletotrichum gloeosporioides. In words: Antimicrobial activity against Colletotrichum gloeosporioides after 24 hrs by agar diffusion method. It counts as functional.
Another data set has as its system Escherichia coli. As to the kind of experiment: Antimicrobial activity against Escherichia coli after 24 hrs by agar diffusion method. It is filed as functional.

As to `CCCC[C@@H](C)[C@@H]1[C@@H]2C=C[C@H]3[C@H](C)[C@@H](O)[C@@H](O)[C@@H]3[C@]1(C)OC2=O`, the lowest concentration to inhibit growth against Staphylococcus aureus (MIC) was 12.4 µg/mL (≈ 38.5 µM). Further, the median lethal concentration (LC50) at 24 h in [1] is 65.6 µg/mL (≈ 203 µM). Moreover, the growth inhibition (GI) in the data set with Chattonella marina is 37.2%; in the data set on Prorocentrum donghaiense, 14.1%; in the data set with Scrippsiella trochoidea, -47.2%. The inhibition of growth at 100 µg/mL in the data set on Heterosigma akashiwo (read-out: GI) came to 23.4%.
Consider `C[C@@H]1[C@H](O)[C@@H](C)/C=C/C=C/C=C/C=C/C=C/C=C/C=C/[C@H](O[C@@H]2O[C@H](C)[C@@H](O)[C@H](N)[C@@H]2O)C[C@@H]2O[C@](O)(C[C@@H](O)C[C@@H](O)[C@H](O)CC[C@@H](O)C[C@@H](O)CC(=O)O[C@H]1C)C[C@H](O)[C@H]2C(=O)O` [AMPHOTERICIN B], for which the MIC (in the data set on Colletotrichum lagenaria; in data set [2]) was 12.4 µg/mL (≈ 13.4 µM) throughout.
Turning to `O=C(N[C@H](CO)[C@H](O)c1ccc([N+](=O)[O-])cc1)C(Cl)Cl` [CHLORAMPHENICOL], the MIC in the data set with Staphylococcus aureus turned out to be 0.8 µg/mL (≈ 2.48 µM); in the data set on Escherichia coli it was 1.6 µg/mL (≈ 4.95 µM).
“POTASSIUM DICHROMATE [listing 1 of 2 here]”: the 50% lethal concentration (LC50) in [1] (24 h) is 20.8 µg/mL.
Take “POTASSIUM DICHROMATE [listing 2 of 2 here]”: the growth inhibition (GI) was determined as 74.4% with Chattonella marina, 78.4% in the data set on Heterosigma akashiwo, 71.7% with Prorocentrum donghaiense and 71.9% in the data set on Scrippsiella trochoidea.
